This passage reports IC50 results from publication PMC10255489, “Targeting Anti-Inflammatory Pathways to Treat Diabetes-Induced Neuropathy by 6-Hydroxyflavanone” (Nutrients, 2023).

One assay deals with T1, cyclooxygenase-2 (COX-2) (Homo sapiens, UniProt P35354).
T1 construct: gene PTGS2
T1 sequence (P35354 18-604): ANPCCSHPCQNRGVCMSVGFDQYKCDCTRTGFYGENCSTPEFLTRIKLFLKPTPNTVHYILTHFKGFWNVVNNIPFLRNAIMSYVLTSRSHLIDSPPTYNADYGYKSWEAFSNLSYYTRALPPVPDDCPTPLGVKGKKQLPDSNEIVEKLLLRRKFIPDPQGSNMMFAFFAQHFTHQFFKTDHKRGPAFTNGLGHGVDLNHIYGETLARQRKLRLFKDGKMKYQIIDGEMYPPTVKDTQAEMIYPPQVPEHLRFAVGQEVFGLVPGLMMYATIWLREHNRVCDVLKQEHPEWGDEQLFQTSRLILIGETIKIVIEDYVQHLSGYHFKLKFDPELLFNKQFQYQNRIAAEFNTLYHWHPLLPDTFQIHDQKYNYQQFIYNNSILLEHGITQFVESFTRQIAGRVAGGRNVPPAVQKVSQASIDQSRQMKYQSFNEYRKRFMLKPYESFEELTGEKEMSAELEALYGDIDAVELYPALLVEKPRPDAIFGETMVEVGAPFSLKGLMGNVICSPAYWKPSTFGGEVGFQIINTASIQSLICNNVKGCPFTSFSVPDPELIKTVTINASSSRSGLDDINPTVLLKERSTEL
The experiment in a line: colorimetric COX inhibitor screening assay (Cayman […]), human recombinant COX-2.

For the next assay, the target named is T2, 5-lipoxygenase (5-LOX) (Homo sapiens, UniProt P09917).
T2 construct: gene ALOX5
T2 sequence (P09917 1-674): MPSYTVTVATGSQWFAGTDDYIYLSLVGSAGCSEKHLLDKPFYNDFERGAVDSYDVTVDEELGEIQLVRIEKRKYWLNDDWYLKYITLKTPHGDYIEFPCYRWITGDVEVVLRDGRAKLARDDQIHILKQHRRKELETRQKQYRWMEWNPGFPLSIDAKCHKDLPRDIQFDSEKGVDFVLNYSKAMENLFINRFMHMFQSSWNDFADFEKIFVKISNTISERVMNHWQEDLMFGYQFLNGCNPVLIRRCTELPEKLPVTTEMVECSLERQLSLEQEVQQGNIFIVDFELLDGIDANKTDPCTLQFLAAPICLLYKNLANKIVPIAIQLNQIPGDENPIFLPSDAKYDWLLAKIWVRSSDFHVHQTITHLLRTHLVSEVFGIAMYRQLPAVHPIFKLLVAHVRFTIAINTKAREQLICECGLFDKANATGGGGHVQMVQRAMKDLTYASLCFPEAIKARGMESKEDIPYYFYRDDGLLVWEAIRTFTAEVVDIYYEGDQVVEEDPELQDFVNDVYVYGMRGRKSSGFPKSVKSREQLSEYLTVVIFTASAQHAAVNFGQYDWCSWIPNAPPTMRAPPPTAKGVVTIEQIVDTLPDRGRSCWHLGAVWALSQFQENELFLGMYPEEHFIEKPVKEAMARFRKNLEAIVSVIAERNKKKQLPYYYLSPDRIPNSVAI
The experiment in a line: UV ([…] nm) linoleic acid to HPOD assay, human recombinant 5-LOX. It is filed as biochemical.

As usually defined, the IC50 is the concentration that gives 50% inhibition.

With `O=C1CC(c2ccccc2)Oc2ccc(O)cc21` (centres unmarked) [6-HF, 6-Hydroxyflavanone], the IC50 at cyclooxygenase-2 (COX-2) turned out to be 21.9 µM; at 5-lipoxygenase (5-LOX) it was 36 µM.
